Reference: article PMC11726445 (RSC Advances, 2025)
Converted amounts (≈) assume the structure as drawn.

What was measured:
Assay type in all cases: cell-based
Candida albicans = assay: MIC, broth microdilution
Bacillus subtilis [1] = assay: MIC, broth microdilution
Staphylococcus aureus [2] = assay: MIC, broth microdilution
Klebsiella pneumonia [3] = assay: MIC, broth microdilution; details: Klebsiella pneumoniae
Pseudomonas aeruginosa [4] = assay: MIC, broth microdilution
Bacillus subtilis [5] = assay: Biofilm inhibition, crystal violet method
Staphylococcus aureus [6] = assay: Biofilm inhibition, crystal violet method
Klebsiella pneumonia [7] = assay: Biofilm inhibition, crystal violet method
Salmonella typhimurium [8] = assay: Biofilm inhibition, crystal violet method
Pseudomonas aeruginosa [9] = assay: Biofilm inhibition, crystal violet method
Bacillus subtilis [10] = assay: Bacterial lipid peroxidation; details: treated at the MIC level
Staphylococcus aureus [11] = assay: Bacterial lipid peroxidation; details: treated at the MIC level
Klebsiella pneumonia [12] = assay: Bacterial lipid peroxidation; details: treated at the MIC level
Salmonella typhimurium [13] = assay: Bacterial lipid peroxidation; details: treated at the MIC level
Pseudomonas aeruginosa [14] = assay: Bacterial lipid peroxidation; details: treated at the MIC level

| MIC (Candida albicans) | MIC (Bacillus subtilis [1]) | MIC (Staphylococcus aureus [2]) | MIC (Klebsiella pneumonia [3]) | MIC (Pseudomonas aeruginosa [4]) | Efficacy (MIC) relative to Sulfadiazine (Staphylococcus aureus [2]) | Structure (SMILES) | Biofilm inhibition (Bacillus subtilis [5]) | Biofilm inhibition (Staphylococcus aureus [6]) | Biofilm inhibition (Klebsiella pneumonia [7]) | Biofilm inhibition (Salmonella typhimurium [8]) | Biofilm inhibition (Pseudomonas aeruginosa [9]) | Lipid peroxidation efficiency (Bacillus subtilis [10]) | Lipid peroxidation efficiency (Staphylococcus aureus [11]) | Lipid peroxidation efficiency (Klebsiella pneumonia [12]) | Lipid peroxidation efficiency (Salmonella typhimurium [13]) | Lipid peroxidation efficiency (Pseudomonas aeruginosa [14]) |
| --- | --- | --- | --- | --- | --- | --- | --- | --- | --- | --- | --- | --- | --- | --- | --- | --- |
| 48 ± 4.18 µg/mL (≈ 82.7 µM) | 23 ± 2.21 µg/mL (≈ 39.6 µM) | 50 ± 0.88 µg/mL (≈ 86.1 µM) | 22 ± 4.72 µg/mL (≈ 37.9 µM) | 45 ± 6.11 µg/mL (≈ 77.5 µM) | – | CCCS(=O)(=O)Oc1ccc(C=NNC(=O)CSc2nc3c(C)cccc3c(=O)n2-c2ccccc2)cc1OC [5f, 2-Methoxy-4-((2-(2-((8-methyl-4-oxo-3-phenyl-3,4-dihydroquinazolin-2-yl)thio)-acetyl)hydrazono)methyl)phenyl propane-1-sulfonate] | 56.4 ± 3.12% | 45.1 ± 1.62% | 59.6 ± 2.22% | 37.4 ± 1.82% | 34.8 ± 4.07% | 212.5 ± 5.52% | 151.2 ± 1.92% | 230.4 ± 2.12% | 273.1 ± 4.33% | 140.4 ± 5.02% |
| 9 ± 3.17 µg/mL | 48 ± 2.25 µg/mL | 11.3 ± 2.38 µg/mL | 99 ± 5.02 µg/mL | 96 ± 4.83 µg/mL | 2 fold | COc1ccc(C=NNC(=O)CSc2nc3c(C)cccc3c(=O)n2-c2ccccc2)cc1OS(C)(=O)=O [5g, 2-Methoxy-5-((2-(2-((8-methyl-4-oxo-3-phenyl-3,4-dihydroquinazolin-2-yl)thio)-acetyl)hydrazono)methyl)phenyl methanesulfonate] | 45.1 ± 2.72% | 34.7 ± 4.02% | 32.8 ± 1.92% | 33.9 ± 2.94% | 20.1 ± 2.32% | 219.7 ± 2.71% | 118.4 ± 2.26% | 285.2 ± 1.44% | 210.4 ± 4.66% | 175.2 ± 3.29% |
| 10 ± 2.55 µg/mL | 49 ± 2.77 µg/mL | 52 ± 0.28 µg/mL | 44 ± 1.88 µg/mL | 97 ± 3.88 µg/mL | – | CCS(=O)(=O)Oc1ccc(C=NNC(=O)CSc2nc3ccc(Cl)cc3c(=O)n2-c2ccccc2)cc1 [5k, 4-((2-(2-((6-Chloro-4-oxo-3-phenyl-3,4-dihydroquinazolin-2-yl)thio)acetyl)-hydrazono)methyl)phenyl ethanesulfonate] | 63.7 ± 0.92% | 42.9 ± 2.62% | 53.1 ± 2.12% | 61.9 ± 1.72% | 38.7 ± 3.66% | 377.6 ± 3.44% | 202.2 ± 2.17% | 295.2 ± 1.89% | 278.3 ± 5.07% | 181.3 ± 6.06% |
| – | – | – | – | – | – | O=C(O)c1cn(C2CC2)c2cc(N3CCNCC3)c(F)cc2c1=O [Ciprofloxacin, reference compound] | 49.2 ± 1.16% | 30.9 ± 4.52% | 40.8 ± 3.88% | 58.3 ± 4.02% | 45.2 ± 1.18% | 417.7 ± 2.83% | 319.8 ± 3.26% | 327.4 ± 4.42% | 294.8 ± 1.99% | 346.3 ± 2.62% |
| 72 ± 3.44 µg/mL (≈ 288 µM) | 46 ± 4.18 µg/mL (≈ 184 µM) | 24 ± 3.92 µg/mL (≈ 95.9 µM) | 47 ± 3.18 µg/mL (≈ 188 µM) | 70 ± 4.99 µg/mL (≈ 280 µM) | – | Nc1ccc(S(=O)(=O)Nc2ncccn2)cc1 [Sulfadiazine, reference compound] | – | – | – | – | – | – | – | – | – | – |
